Read-outs that look alike come from different tables or passages of the source. Where no end group is shown, it is not given here.
Key:
[1] = test system: Human red cells; assay: Red blood cell lysis; format: cell-based
[2] = test system: Bacillus megaterium BM11; assay: Antimicrobial inhibition zone assay, B. megaterium; format: cell-based; conditions: B. megaterium BmII; inhibition zones on agarose plates
Experimental: (§1) Antimicrobial assay. The antibacterial activity was tested against Bacillus megaterium BM11, Staphylococcus aureus Cowahl, Streptococcus pyogenes b hemolytic group A, Pseudomonas aeruginosa ATCC 15692, Escherichia coli D21, E. coli D21e7, E. coli D21f1, E. coli D21f2 and E. coli D22, using an inhibition zone assay on LB broth/1% agarose plates seeded with 2×10^5 viable bacteria (Hultmark, D., Engstrom, A., Andersson, K., Steiner, H., Bennich, H. & Boman, H. G. (1983) Insect immunity. Attacin, a family of antibacterial proteins from Hyulophora cecropin, EMBO J. 2, 571-576). Fresh cultures of Candida albicans ATCC 10261 were inoculated in WB broth, pH 6.5, and grown at 37° C. to approximately 0.6 OD600. Before plating, cultures were diluted 300 fold and then incubated overnight at 37° C. in the presence of the test peptide, the concentration of which was established by amino acid analysis. Inhibition zones were measured and the lethal concentration (LC, the lowest concentration that inhibits the growth) was calculated from the diameter of the zones obtained in serial dilutions of the test substance by using the formula given in Hultmark, D., Engstrom, A., Andersson, K., Steiner, H., Bennich, H. & Boman, H. G. (1983) Insect immunity. […] Values are expressed as the mean of at least 5 experiments with a divergence of not more than one dilution step.

[3] = test system: Staphylococcus aureus Cowan1; assay: Antimicrobial inhibition zone assay, S. aureus; format: cell-based; conditions: inhibition zones on agarose plates
Experimental: as §1

[4] = test system: Escherichia coli D21; assay: Antimicrobial inhibition zone assay, E. coli D21; format: cell-based; conditions: Table 2
Experimental: as §1, with “step. […]” for “step.”

[5] = test system: Bacillus megaterium BM11; conditions: B. megaterium BmII; cecropin data from Hultmark et al. (1983); cited from earlier work
[6] = test system: Staphylococcus aureus Cowan1; conditions: S. aureus Cowan1; cecropin data from Hultmark et al. (1983); cited from earlier work
[7] = test system: Y. pseudotubercolosis; conditions: cecropin data from Hultmark et al. (1983); cited from earlier work
[8] = test system: Escherichia coli D21; conditions: E. coli D21; cecropin data from Hultmark et al. (1983); cited from earlier work
[9] = test system: Human red cells; conditions: cecropin data from Hultmark et al. (1983); cited from earlier work

Molecule: FIGSALKVLAGVLPSVISWVKQ-NH2 [MLP]
- Lethal concentration (lytic activity) [1]: 0.5 µM

Molecule: CC[C@H](C)[C@H](NC(=O)CN)C(=O)NCC(=O)N[C@@H](C)C(=O)N[C@H](C(=O)N[C@@H](CC(C)C)C(=O)N[C@@H](CCCCN)C(=O)N[C@H](C(=O)N[C@@H](CC(C)C)C(=O)N[C@H](C(=O)N[C@H](C(=O)NCC(=O)N[C@@H](CC(C)C)C(=O)N1CCC[C@H]1C(=O)N[C@@H](C)C(=O)N[C@@H](CC(C)C)C(=O)N[C@H](C(=O)N[C@@H](CO)C(=O)N[C@@H](Cc1c[nH]c2ccccc12)C(=O)N[C@H](C(=O)N[C@@H](CCCCN)C(=O)N[C@@H](CCCNC(=N)N)C(=O)N[C@@H](CCCCN)C(=O)N[C@@H](CCCNC(=N)N)C(=O)N[C@@H](CCC(N)=O)C(=O)N[C@@H](CCC(N)=O)C(N)=O)[C@@H](C)CC)[C@@H](C)CC)[C@@H](C)O)[C@@H](C)O)C(C)C)C(C)C [Melittin]
- Lethal concentration [2]: 0.6 µM
- Lethal concentration [3]: 0.2 µM
- Lethal concentration [4]: 0.8 µM
- Lethal concentration (lytic activity) [1]: 0.9 µM

Molecule: FLPLIGRVLSGIL-NH2 [Temporin A]
- Lethal concentration (lytic activity) [1]: > 120 µM

Molecule: Cecropin A: cecropin from insect hemolymph (KWKLFKKIEKVGQNIRDGIIKAGPAVAVVGQATQIAK; ends and bridges not checked; UniProt P01507 27-63, looked up)
- Lethal concentration [5]: 0.5 µM
- Lethal concentration [6]: > 200 µM
- Lethal concentration [7]: 0.5 µM
- Lethal concentration [8]: 0.3 µM
- Lethal concentration (lytic activity) [9]: > 400 µM

Molecule: LLPIVGNLLKSLL-NH2 [Temporin B]
- Lethal concentration (lytic activity) [1]: > 120 µM

Reference: US6310176A, “Antimicrobially active polypeptides” (SBL Vaccin AB, priority 1996, dated 2001)
